# Source: patent US7053116B2, “Methods for protecting cells from amyloid toxicity and for inhibiting amyloid protein production” (The Salk Institute for Biological Studies, priority 2000, dated 2006)
# Like-named read-outs stand apart in the source and are kept apart here. No end group written: not given here.
# Experiments:
# B12 cells [1] = conditions: cited from earlier work; for induction of MTT formazan exocytosis by protein fibrils: fibrils formed under denaturing conditions, Liu and Schubert 1998; for enhancement of MTT formazan exocytosis: B12 cells, Liu and Schubert 1997
# [2] = test system: Aβ-induced MTT formazan exocytosis; assay: Blocking of Aβ-induced MTT formazan exocytosis by amyloid-binding agents; format: cell-based
# Protocol: MTT formazan exocytosis is assessed by microscopic observation. The needle-like crystals on the surface of the cells incubated with MTT, which are easily visible under a light microscope, represent exocytosed MTT formazan (Liu et al. (1997) J. Neurochem. 69:581–593). The percentages of cells exocytosing MTT formazan were determined by counting 300 cells in multiple fields using the presence of needle-like formazan crystals on cell surface as an indicator of MTT formazan exocytosis. A cell is counted as exocytosing MTT formazan when several needle-like formazan crystals are clearly visible.
# The involvement of β-sheeted amyloid fibrils in generating this phenomenon is supported by the observation that amyloid-binding agents such as Congo red block 90% of the Aβ-induced MTT formazan exocytosis. Under denaturing conditions, non-amyloidogenic proteins such as insulin and glucagon also form protein fibrils with the same cross β structure as that in amyloid fibrils (Glenner et al., J. Histochem. Cytochem. 22:1141–1158 (1974) and Burke et al. Biochem. 11:2435–2439 (1972)). […] Therefore, the ability to enhance cellular MTT formazan exocytosis is a common property of protein fibrils having a cross β-pleated sheet structure. […]
# Primary astrocytes = assay: Astrocyte culture, quantitation of secreted cytokines (ELISA); format: cell-based, rat; conditions: astrocyte conditioned media; 10 μM peptide for 12 hr; mean ±S.E.M.
# Protocol: Astrocyte culture and quantitation of secreted cytokines Primary astrocytes were prepared from the cortices of 2-day-old Sprague-Dawley rat pups according the method of Levison and McCarthy (Culturing Nerve Cells in: G. Banker, and K. Goslin (eds.), MIT Press, Cambridge, Mass. 1991, pp. 309–336). The dissected cortices were dissociated enzymatically with trypsin and mechanically by passing through a fine pipette. The cells were cultured in α-MEM (Life Technologies, MD) containing 10% fetal bovine serum and antibiotics. After 11 days in culture, the primary cells were replated at a density of 10,000 cells/cm^2 and grown until confluent. At least 24 hr before treatment, the cells were washed twice with PBS and then incubated with serum-free α-MEM containing N2 supplements (Life Technologies, MD).
# Cytokine Measurements For IL-1β and TNF-α measurements, 7.5×10^4 cells/well were plated in a 48-well tissue culture plate. After 48 hr of incubation in serum-free α-MEM containing N2 supplements, the cells were treated with 10 μM of various amyloid or non-amyloidogenic peptides for 12 hr. Conditioned media from duplicate wells for each sample were collected and stored at −80° C. until use. Cytokine levels in the conditioned media were determined by ELISA kits from R&D systems and performed according to the manufacturer's protocols.
# Hippocampal neurons [3] = test system: Hippocampal neurons
# Protocol: (§1) The cells were suspended in a serum-free medium and plated on polylysine-coated 24-well tissue culture plates (1×10^6 cells/ml). The serum-free medium used is a modified minimal essential medium containing 30 mM glucose, 2 mM glutamine, 1 mM pyruvate, penicillin (100 U/ml), streptomycin (100 μg/ml), and N1supplements (Sigma). After 3 days in culture, the neurons acquire long and extensively branched neurites. Half of the medium in each dish was then replaced with fresh medium, and test reagents (20 μM peptide solutions) were added. Neuron survival was assessed 48 hours after treatment. Neurons were judged to be viable by the intactness of their neurites and soma (absence of vacuoles and the ability to exclude trypan blue). Five fields (˜80 neurons/field) were scored in each culture. The number of viable neurons in untreated cultures was designated as 100% survival.
# astrocytes = assay: Astrocyte activation indicated by morphological changes; format: cell-based, rat; conditions: peptide preparations
# Protocol: The dissected cortices were dissociated enzymatically with trypsin and mechanically by passing through a fine pipette. The cells were cultured in α-MEM (Life Technologies, MD) containing 10% fetal bovine serum and antibiotics. After 11 days in culture, the primary cells were replated at a density of 10,000 cells/cm^2 and grown until confluent. At least 24 hr before treatment, the cells were washed twice with PBS and then incubated with serum-free α-MEM containing N2 supplements (Life Technologies, MD).
# B12 cells [4] = conditions: for ability to induce MTT formazan exocytosis (in words): peptide preparations
# Protocol: MTT reduction and MTT formazan exocytosis MTT reduction by cultured cells was performed in 96-well microtiter plates containing 100 μl of medium per well. Cells (about 10^4 cells per well) were plated in Dulbecco's modified Eagles's medium (DMEM) supplemented with 5% dialyzed fetal calf serum and incubated overnight before drug treatment. MTT reduction was started by adding 10 μl per well of a 2.5 mg/ml MTT stock in phosphate-buffered saline (PBS) and terminated by adding 100 μl of a solubilization solution containing 50% N,N′-dimethylformamide and 20% sodium dodecyl sulfate (SDS; pH 4.8). […] MTT reduction is determined the next day by determining absorbance at 570 nm with an automatic microtiter plate reader, using 630 nm as the reference wavelength.
# MTT reduction by living cells is initially observed as intracellular formazan granules, and needle-like formazan crystals begin to appear on the cell surface after about 30 min of MTT reduction.
# Amyloid peptide-induced MTT formazan exocytosis was determined with B12 cells, as described herein. B12 cells on 35 mm dishes were treated with 10 μM for 16 hr at 37° C., followed by 30 min MTT reduction. The percentage of cells exocytosing MTT formazan with morphology similar to that induced by Aβ was then determined.
# Hippocampal neurons [5] = assay: Hippocampal neuronal cultures, assessment of neuronal viability
# Protocol: as §1
molecule,measurement,setting,value
glucagon: non-amyloidogenic protein forming fibrils with cross β structure under denaturing conditions,induction of MTT formazan exocytosis by protein fibrils,B12 cells [1],induce MTT formazan exocytosis
Nc1c(/N=N/c2ccc(-c3ccc(/N=N/c4cc(S(=O)(=O)O)c5ccccc5c4N)cc3)cc2)cc(S(=O)(=O)O)c2ccccc12 [Congo red],block of the Aβ-induced MTT formazan exocytosis,[2],90%
Aβ1-28: nonfibrillogenic peptide,enhancement of MTT formazan exocytosis,B12 cells [1],do not enhance
CC(C)C[C@H](NC(=O)[C@H](CC(N)=O)NC(=O)[C@H](CC(N)=O)NC(=O)[C@H](CO)NC(=O)[C@H](CO)NC(=O)[C@H](CCCNC(=N)N)NC(=O)[C@@H](NC(=O)[C@H](CC(C)C)NC(=O)[C@H](Cc1ccccc1)NC(=O)[C@H](CC(N)=O)NC(=O)[C@H](C)NC(=O)[C@H](CC(C)C)NC(=O)[C@H](CCCNC(=N)N)NC(=O)[C@H](CCC(N)=O)NC(=O)[C@@H](NC(=O)[C@H](C)NC(=O)[C@@H]1CSSC[C@H](NC(=O)[C@@H](N)CCCCN)C(=O)N[C@@H](CC(N)=O)C(=O)N[C@@H]([C@@H](C)O)C(=O)N[C@@H](C)C(=O)N[C@@H]([C@@H](C)O)C(=O)N1)[C@@H](C)O)C(C)C)C(=O)NCC(=O)N1CCC[C@H]1C(=O)N[C@H](C(=O)N[C@@H](CC(C)C)C(=O)N1CCC[C@H]1C(=O)N1CCC[C@H]1C(=O)N[C@H](C(=O)N[C@@H](CC(N)=O)C(=O)N[C@H](C(=O)NCC(=O)N[C@@H](CO)C(=O)N[C@@H](CC(N)=O)C(=O)N[C@H](C(=O)N[C@@H](Cc1ccc(O)cc1)C(N)=O)[C@@H](C)O)C(C)C)[C@@H](C)O)C(C)C [Rat amylin],IL-1β,Primary astrocytes,46 ± 7 pg/mL
same,TNF-α,Primary astrocytes,48 ± 8 pg/mL
same,enhancement of MTT formazan exocytosis,B12 cells [1],do not enhance
same,neurotoxicity to rat hippocampal neurons (in words),Hippocampal neurons [3],not active
same,astrocyte activation as indicated by the morphological changes of the astrocytes (in words),astrocytes,not active
same,ability to induce MTT formazan exocytosis (in words),B12 cells [4],not active
insulin: non-amyloidogenic protein forming fibrils with cross β structure under denaturing conditions,induction of MTT formazan exocytosis by protein fibrils,B12 cells [1],induce MTT formazan exocytosis
"Aβ17-40: nonfibrillogenic peptide (LVFFAEDVGSNKGAIIGLMVGGVV; Amyloid-beta protein 40; UniProt P05067 688-711, looked up, fragment)",enhancement of MTT formazan exocytosis,B12 cells [1],do not enhance
GSNKGAIIGLM [Aβ25–35],IL-1β,Primary astrocytes,754 ± 78 pg/mL
same,TNF-α,Primary astrocytes,350 ± 46 pg/mL
same,enhancement of MTT formazan exocytosis,B12 cells [1],dramatically enhance
same,ability to induce MTT formazan exocytosis (in words),B12 cells [4],always active
"Aβ1-40: amyloid beta 1-40, 40 amino acid form of amyloid beta peptide; lot not specified",enhancement of MTT formazan exocytosis,B12 cells [1],dramatically enhance
same,ability to induce MTT formazan exocytosis (in words),B12 cells [4],variable among different manufacturer's lots
CC[C@H](C)[C@H](NC(=O)[C@H](C)NC(=O)CNC(=O)[C@H](Cc1ccccc1)NC(=O)[C@H](CC(N)=O)NC(=O)[C@H](CC(N)=O)NC(=O)[C@H](CO)NC(=O)[C@H](CO)NC(=O)[C@H](Cc1c[nH]cn1)NC(=O)[C@@H](NC(=O)[C@H](CC(C)C)NC(=O)[C@H](Cc1ccccc1)NC(=O)[C@H](CC(N)=O)NC(=O)[C@H](C)NC(=O)[C@H](CC(C)C)NC(=O)[C@H](CCCNC(=N)N)NC(=O)[C@H](CCC(N)=O)NC(=O)[C@@H](NC(=O)[C@H](C)NC(=O)[C@@H]1CSSC[C@H](NC(=O)[C@@H](N)CCCCN)C(=O)N[C@@H](CC(N)=O)C(=O)N[C@@H]([C@@H](C)O)C(=O)N[C@@H](C)C(=O)N[C@@H]([C@@H](C)O)C(=O)N1)[C@@H](C)O)C(C)C)C(=O)N[C@@H](CC(C)C)C(=O)N[C@@H](CO)C(=O)N[C@@H](CO)C(=O)N[C@H](C(=O)N[C@@H](CC(N)=O)C(=O)N[C@H](C(=O)NCC(=O)N[C@@H](CO)C(=O)N[C@@H](CC(N)=O)C(=O)N[C@H](C(=O)N[C@@H](Cc1ccc(O)cc1)C(N)=O)[C@@H](C)O)C(C)C)[C@@H](C)O [Human amylin],MTT (%),"B12 cells [4]; percentage of B12 cells exocytosing MTT formazan, 10 μM for 16 hr at 37° C., followed by 30 min MTT reduction, mean ±S.E.M.",97 ± 1 %
same,neurotoxicity to rat hippocampal neurons (in words),Hippocampal neurons [5]; peptide preparations,kill rat hippocampal neurons
same,Viable Neurons (% of control),"Hippocampal neurons [5]; rat hippocampal neurons, 20 μM peptide solutions, 48 hours after treatment, mean ±S.E.M.",32 ± 7 % of control
